Measured values taken from patent publication US20240349727A1, “SYNERGY BETWEEN MIXTURES OF ISOTHIOCYANATES AND COMMERCIAL FUNGICIDES” (priority 2021, published 2024).
Like-named read-outs stand apart in the source and are kept apart here.

Columns and labels:
Assay type in all cases: cell-based
Fusarium verticilloides = assay: In vitro fungitoxic activity, 48-well PDA outgrowth, curative (Example 2); settings: 168 h, fungicide alone, 7 days at room temperature
Description: (§1) All the experiments were done in the same way. In 48-well plates, each well was filled with a volume of 180 μL of the ITC, the fungicide or a combination of both at various concentrations and filled with 180 μL of Potato Dextrose Agar (PDA). Two or three wells were used per concentration for better accuracy. After solidification of the well a plug of 2×2 mm of grown fungi was placed in each well, and the 48-well plate was sealed with parafilm. After 7 days of incubation at room temperature, the fungal outgrowth was measured and the EC50 was calculated with a 4-parameter logistic regression in XLSTAT.
(§2) Afterward, a concentration of the fungicides at which the fungi is not growing (i.e. […] the EC50) was determined. Applicants repeated the 48-well experiment by filling the well with a mixture of the ITC and the fungicides; the fungicide concentration was kept constant at the determined concentration mentioned above and the ITC concentration was varied. As before, the fungal outgrowth was measured after 7 days of incubation. To calculate the synergistic properties of the combo ITC+fungicides, the Combination Index (CI) described by Chou (2006) was calculated using the CompuSyn software.

Rhizoctonia solani [1] = assay: In vitro fungitoxic activity, 48-well PDA outgrowth, curative; settings: 168 h, fungicide alone, 7 days at 20° C.
Description: (§3) All the experiments were done in the same way, with small differences between curative and preventive cases. In 48-well plates, each well was filled with a volume of 180 μL of the ITC, the fungicide or a combination of both at various concentrations and filled with 180 μL of Potato Dextrose Agar (PDA). Three wells were used per concentration for better accuracy. After solidification of the well, either a plug of 2×2 mm of grown fungi (curative case) or 20 μL of a spore solution (˜1E5 spores/mL, preventive case) was placed in each well, and the 48-well plate was sealed with parafilm. After 7 days of incubation at 20° C. in a controlled growth chamber, the fungal outgrowth was measured and the EC50 was calculated with a 4-parameter logistic regression in XLSTAT.
as §2, with “ITO” for “ITC”, “ITO+fungicides,” for “ITC+fungicides,”

Rhizoctonia solani [2] = assay: In vitro fungitoxic activity, 48-well PDA outgrowth, preventive (spore solution); settings: 168 h, fungicide alone, 7 days at 20° C.
Description: as §3
as §2, with “ITO” for “ITC”, “ITO+fungicides,” for “ITC+fungicides,”

Colletotrichum acutatum = assay: In vitro fungitoxic activity, 48-well PDA outgrowth, curative (Example 2); settings: 168 h, fungicide alone, 7 days at room temperature
Description: as §1, §2

[3] = test system: Lasiodiplodia pseudotheobromae; assay: as above; settings: 168 h, read-out: EC50 fungicide
Description: as §1, §2

Alternaria radicina = assay: In vitro fungitoxic activity, 48-well PDA outgrowth, curative; settings: 168 h, read-out: EC50 fungicide
Description: as §3
as §2, with “ITO” for “ITC”, “ITO+fungicides,” for “ITC+fungicides,”

Botrytis cinerea = assay: as above; settings: 168 h, read-out: EC50 fungicide
Description: as §3
as §2, with “ITO” for “ITC”, “ITO+fungicides,” for “ITC+fungicides,”

Geotrichum candidum [4] = assay: as above; settings: 168 h, read-out: EC50 fungicide
Description: as §3
as §2, with “ITO” for “ITC”, “ITO+fungicides,” for “ITC+fungicides,”

Penicillium digitatum = assay: as above; settings: 168 h, read-out: EC50 fungicide
Description: as §3
as §2, with “ITO” for “ITC”, “ITO+fungicides,” for “ITC+fungicides,”

[5] = test system: Plectosphaerella cucumerina; assay: In vitro fungitoxic activity, 48-well PDA outgrowth, curative (Example 2); settings: 168 h, read-out: EC50 fungicide
Description: as §1, §2

Geotrichum candidum [6] = assay: In vitro fungitoxic activity, 48-well PDA outgrowth, preventive (spore solution); settings: 168 h, fungicide alone, 7 days at 20° C.
Description: as §3
as §2, with “ITO” for “ITC”, “ITO+fungicides,” for “ITC+fungicides,”

Penicillium commune = assay: In vitro fungitoxic activity, 48-well PDA outgrowth, curative (Example 2); settings: 168 h, fungicide alone, 7 days at room temperature
Description: as §1, §2

[7] = fungicide alone, curative, 7 days at room temperature
[8] = fungicide alone, curative, 7 days at 20° C.

O=C1C2CC=CCC2C(=O)N1SC(Cl)(Cl)Cl (stereo not shown) [Captan]
EC50 (Fusarium verticilloides): 424 µM

N#Cc1c(Cl)c(Cl)c(Cl)c(C#N)c1Cl [Chlorothalonil]
EC50 (Rhizoctonia solani [1]): 29 µM | EC50 (Rhizoctonia solani [2]): 2 µM | EC50 (Colletotrichum acutatum): 52 µM

Cc1cc(C2CC2)nc(Nc2ccccc2)n1 [Cyprodinil]
EC50 [3, 7]: 9 µM

CCCCCCCCCCCCNC(=N)N [Dodine]
EC50 (Alternaria radicina): 110 µM | EC50 (Botrytis cinerea): 189 µM | EC50 (Geotrichum candidum [4]): 156 µM | EC50 (Penicillium digitatum): 92 µM | EC50 [3]: 476 µM | EC50 [5]: 93 µM

N#Cc1c[nH]cc1-c1cccc2c1OC(F)(F)O2 [Fludioxonil]
EC50 [3]: 1 µM

Cc1cc(C)nc(Nc2ccccc2)n1 [Pyrimethanil]
EC50 (Alternaria radicina; [8]): 3 µM | EC50 (Rhizoctonia solani [1]): 28 µM

CC(C)(C)C(O)(CCc1ccc(Cl)cc1)Cn1cncn1 (stereo not shown) [Tebuconazole]
EC50 (Alternaria radicina; [8]): 30 µM | EC50 (Geotrichum candidum [4]; [8]): 27 µM | EC50 (Penicillium digitatum; [8]): 1 µM | EC50 (Rhizoctonia solani [1]): 18 µM | EC50 (Geotrichum candidum [6]): 25 µM | EC50 (Fusarium verticilloides): 6 µM | EC50 [3, 7]: 300 µM | EC50 (Penicillium commune): 179 µM
